Assay [1] deals with Candida albicans. The assay can be described thus: Antifungal activity against Candida albicans. The class given is functional.
For assay [2], the system named is Candida albicans. The experiment in a line: Antifungal activity against Candida albicans at 2 ug/disk. The class given is functional. The conditions noted are these: for zone of inhibition at 2 µg/disc: read-out: IZ.
Another assay deals with P388. The assay can be described thus: Cytotoxicity against mouse P388 cells. The class given is functional, cell-based.
The test system of assay [3] is Aspergillus fumigatus. The assay can be described thus: Antifungal activity against Aspergillus fumigatus at 2 ug/disk. It is filed as functional. The conditions noted are these: read-out: IZ.
The subject of assay [4] is Aspergillus fumigatus. The experiment in a line: Antifungal activity against Aspergillus fumigatus. The class given is functional.

Data on five compounds can be found in ChEMBL document CHEMBL1144066, “Aurantosides D, E, and F: new antifungal tetramic acid glycosides from the marine sponge Siliquariaspongia japonica” (J Nat Prod, 1999).

Broadly, the MIC is the lowest concentration found to suppress growth. A lower MIC goes with greater potency. For orientation: IC50 means the concentration at which inhibition is half-maximal.

≈ marks a conversion by molar mass, not a printed value. Calls of active or inactive are those of the source. No cut-off for these calls is given here. Where only a bound is given, the exact number is not on record here.

`CO[C@@H]1[C@H](O[C@@H]2CO[C@@H](O[C@@H]3[C@@H](O)[C@H](O)CO[C@H]3N3C(=O)/C(=C(O)/C=C/C=C/C=C/C=C/C=C(Cl)/C=C/C=C/C=C(/C)Cl)C(=O)[C@@H]3CC(N)=O)[C@@H](O)[C@@H]2O)O[C@H](C)[C@H]1O`: the outcome in the assay with Candida albicans [1] and in the assay with Candida albicans [2] was inactive.
As for `CO[C@@H]1[C@H](O[C@@H]2CO[C@@H](O[C@@H]3[C@@H](O)[C@H](O)CO[C@H]3N3C(=O)/C(=C(O)/C=C/C=C/C=C/C=C/C=C(Cl)/C=C(\C)Cl)C(=O)[C@@H]3CC(N)=O)[C@@H](O)[C@@H]2O)O[C@H](C)[C@H]1O` [AURANTOSIDE A], the MIC against Candida albicans [1] came out at 1.25 µg/mL (≈ 1.53 µM); against Aspergillus fumigatus [4], 0.16 µg/mL (≈ 0.196 µM). In the assay on P388, the half-maximal inhibitory concentration (IC50) was over 5 µg/mL. Also, the zone of inhibition at 2 µg/disc was determined as 18 mm with Aspergillus fumigatus [3] and 11.3 mm in the assay on Candida albicans [2].
For `C\C(Cl)=C/C(Cl)=C/C=C/C=C/C=C/C=C/C(O)=C1\C(=O)[C@H](CC(N)=O)N([C@@H]2OC[C@@H](O)[C@H](O)[C@H]2O[C@@H]2OC[C@@H](O[C@@H]3O[C@H](C)[C@@H](O)[C@@H]3O)[C@@H](O)[C@@H]2O)C1=O` [AURANTOSIDE B], in that order: 0.63 µg/mL (≈ 0.784 µM), 0.16 µg/mL (≈ 0.199 µM), over 5 µg/mL, 17.2 mm and 11.8 mm.
Regarding `C/C(Cl)=C/C=C/C(Cl)=C/C=C/C=C/C=C/C=C/C(O)=C1\C(=O)[C@H](CC(N)=O)N([C@@H]2OC[C@@H](O)[C@H](O)[C@H]2O[C@@H]2OC[C@@H](O[C@@H]3O[C@H](C)[C@@H](O)[C@@H]3O)[C@@H](O)[C@@H]2O)C1=O` [AURANTOSIDE D], the IC50 in the assay with P388 was found to be 0.2 µg/mL (≈ 0.241 µM). The zone of inhibition at 2 µg/disc turned out to be 11 mm with Aspergillus fumigatus [3] and 9.5 mm with Candida albicans [2].
Turning to `CO[C@@H]1[C@H](O[C@@H]2CO[C@@H](O[C@@H]3[C@@H](O)[C@H](O)CO[C@H]3N3C(=O)/C(=C(O)/C=C/C=C/C=C/C=C/C=C(Cl)/C=C/C=C(/C)Cl)C(=O)[C@@H]3CC(N)=O)[C@@H](O)[C@@H]2O)O[C@H](C)[C@H]1O` [AURANTOSIDE E], the MIC in the assay with Candida albicans [1] was found to be 0.16 µg/mL (≈ 0.19 µM); against Aspergillus fumigatus [4], 0.04 µg/mL (≈ 0.0474 µM). The compound further came in with an IC50 in the assay with P388 of 0.2 µg/mL (≈ 0.237 µM). The zone of inhibition at 2 µg/disc in the assay with Aspergillus fumigatus [3] was determined as 13.6 mm; with Candida albicans [2], 9.7 mm.
